Source: patent US20120270935A1, “FORMULATIONS” (priority 2009, published 2012)

Columns and labels:
[1] = test system: S. epidermidis NCTC 11047; assay: MIC assay; assay type: cell-based, Staphylococcus epidermidis; settings: Mueller-Hinton broth pH 7.0
Excerpt: (§1) (a) staphylococci. The Staphylococcus aureus strain used was ATCC 29213. S. aureus and other staphylococci are common causes of a wide range of skin, skin structure and wound infections; S. aureus is also known to exacerbate eczema. The ATCC 29213 strain is known to be susceptible to beta-lactam antibiotics such as methicillin. The Staphylococcus epidermidis strain used was NCTC 11047. Staph. epidermidis forms part of the resident flora of skin and is an opportunistic pathogen which can cause biofilms to grow for instance on plastic surgical implants such as catheters. […]
This is a standard international method for quantitatively assessing the antimicrobial activity of a compound in a liquid medium. […]
The wells were inoculated with a liquid suspension of freshly grown micro-organism and incubated under the conditions described above. […] The MIC value was recorded as the lowest concentration of test compound required to inhibit microbial growth, ie the lowest concentration for which the liquid in the well remained clear. […]
(§2) Example 8 was repeated (except for the supplemented DDA assays), using S. aureus ATCC 29213 as the test organism. […] In the DDA assays, 200 μg is of each compound was loaded onto each disc: the culture medium was Mueller-Hinton agar at pH 7.0, and results were recorded after overnight incubation at 37° C. in air. […]

S. pyogenes ATCC 12344 = assay: MIC assay; assay type: cell-based, Streptococcus pyogenes; settings: Mueller-Hinton broth pH 7.0
[2] = test system: S. epidermidis NCTC 11047; assay: MBC assay; assay type: cell-based, Staphylococcus epidermidis; settings: Mueller-Hinton broth pH 7.0
Excerpt: as §1, with “catheters. Unless otherwise stated, the staphylococci were cultured and maintained on Mueller-Hinton Medium (agar and broth) at pH 7.2; cultures were incubated aerobically at 37° C. for 19-20 hours, at pH 7 (±0.2). (b) C. striatum NCTC 764. Corynebacterium striatum is closely related to organisms (aerobic diphtheroids of the genus Corynebacterium) that cause body odour. It was cultured and maintained on Mueller-Hinton medium (agar and broth). All cultures were incubated aerobically at 37° C. for 72 hours, at pH 7 (±0.2).” for “catheters.”
as §2

P. granulosum = assay: Agar dilution MIC assay, panel of propionibacterium strains; assay type: cell-based, Propionibacterium granulosum; settings: resistance MLSK
Experimental: This is a standard international method for quantitatively assessing the antimicrobial activity of a compound in a solid medium. The test compound was prepared to 40× the highest concentration required (eg 10 mg/ml for a final concentration of […]) and a series of doubling dilutions were performed in a suitable solvent. A set amount of these antimicrobial stock solutions was then added to molten agar medium (ca 55° C.), mixed thoroughly, poured into sterile Petri dishes and allowed to cool/set. The culture medium was as described above.
A Multipoint™ Inoculator (AQS Manufacturing Ltd, UK) was used to inoculate the plates by spotting the inocula onto the surface of the agar, delivering approximately 1 to 2 μl per spot (yielding 10^5 CFU (colony forming units) per spot).
The plate(s) were then incubated under the conditions described above, following which they were examined visually for signs of bacterial growth. The MIC value was ascertained when there was a marked reduction in, or total loss of, growth on the test plate at the lowest concentration as compared to that of the growth on the control plate.
The assays were conducted in triplicate and included a positive control (culture medium, diluting solvent and inoculum).
The activity (MIC by agar dilution) of copper usnate was determined against a panel of different propionibacterium strains. […]

C. striatum NCTC 764 = assay: Disc diffusion assay (DDA); assay type: cell-based, Corynebacterium striatum; settings: Corynebacterium striatum, NCTC764; 200 μg per disc; single plates; read-out: DDA zone diameter
Excerpt: as §1, with “catheters. Unless otherwise stated, the staphylococci were cultured and maintained on Mueller-Hinton Medium (agar and broth) at pH 7.2; cultures were incubated aerobically at 37° C. for 19-20 hours, at pH 7 (±0.2). (b) C. striatum NCTC 764. Corynebacterium striatum is closely related to organisms (aerobic diphtheroids of the genus Corynebacterium) that cause body odour. It was cultured and maintained on Mueller-Hinton medium (agar and broth). All cultures were incubated aerobically at 37° C. for 72 hours, at pH 7 (±0.2). (c) streptococci.” for “catheters.”
A sterile paper disc was impregnated with a sample of the test compound in a suitable solvent and 30 minutes allowed for the solvents to evaporate (where possible). […] The diameter of this zone of “inhibition” was measured using a ProtoCOL™ automated zone sizer (Synbiosis, Cambridge, UK). […]

Row | Compound | MIC [1] [µg/mL] | MIC (S. pyogenes ATCC 12344) [µg/mL] | MBC [2] [µg/mL] | MIC (P. granulosum; P. granulosum PRP-005, Erm X) [µg/mL] | MIC (P. granulosum; P. granulosum PRP-019, Erm X) [µg/mL] | zone of inhibition at 200 µg/disc (C. striatum NCTC 764) [mm]
1 | CC(=O)c1c([O-])c(C)c([O-])c2c1OC1=CC(=O)C(C(C)=O)C(=O)C12C.[Cu+2] (stereo not drawn) [Copper usnate, copper (II) usnate] | 0.98 | 0.98 | 62.5 | 1.95 | 1.95 | 
2 | CC(=O)c1c(O)c(C)c(O)c2c1OC1=CC(=O)C(C(C)=O)C(=O)C12C (stereo not drawn) [Usnic acid, 2,6-diacetyl-7,9-dihydroxy-8,9b-dimethyl-1,3(2H,9bh)-dibenzofurandione] |  |  |  |  |  | 20
